Reference: patent US9884854B2, “N-[(pyrimidinylamino)propanyl]-and N[(pyrazinylamino)proppanyl]arylcarboxamides” (Boehringer Ingelheim International GmbH, priority 2016, dated 2018)

Test system: human MDR1 P-gp
Assay: Assay D: efflux in MDCK cells transfected with the human MDR1 gene
Type: in vitro ADME, canine
Details: dog; MDCK-MDR1 monolayers, pH 7.4, 37° C.; read-out: MDCK efflux ratio (BA/AB)
Procedure: The MDCK assay provides information on the potential of a compound to pass the blood brain barrier. Permeability measurements across polarized, confluent MDCK-MDR1 cell monolayers grown on permeable filter supports are used as an in vitro absorption model: apparent permeability coefficients (PE) of the compounds across the MDCK-MDR1 cell monolayers are measured (pH 7.4, 37° C.) in apical-to-basal (AB) and basal-to-apical (BA) transport direction. The AB permeability (PEAB) represents drug absorption from the blood into the brain and the BA permeability (PEBA) drug efflux from the brain back into the blood via both, passive permeability as well as active transport mechanisms mediated by efflux and uptake transporters that are expressed on the MDCK-MDR1 cells, predominantly by the overexpressed human MDR1 P-gp. Identical or similar permeabilities in both transport directions indicate passive permeation, vectorial permeability points to additional active transport mechanisms. Higher PEBA than PEAB (PEBA/PEAB>5) indicates the involvement of active efflux mediated by MDR1 P-gp, which might compromises the goal to achieve sufficient brain exposure. Therefore this assay provides valuable support for selection of compounds applicable for further in vivo testing. High permeability not limited by efflux at the blood brain barrier is a favourable characteristic for compounds that are to be used for drugs acting primarily in the CNS
D. Assessment of Efflux in Madin-Darby Canine Kidney (MDCK) Cells Transfected with the Human MDR1 Gene
Apparent permeability coefficients (PE) of the compounds across the MDCK-MDR1 cell monolayers are measured (pH 7.4, 37° C.) in apical-to-basal (AB) and basal-to-apical (BA) transport direction. AB permeability (PEAB) represents drug absorption from the blood into the brain and BA permeability (PEBA) drug efflux from the brain back into the blood via both passive permeability as well as active transport mechanisms mediated by efflux and uptake transporters that are expressed on the MDCK-MDR1 cells, predominantly by the overexpressed human MDR1 P-gp. The compounds are assigned to permeability/absorption classes by comparison of the AB permeabilities with the AB permeabilities of reference compounds with known in vitro permeability and oral absorption in the human. Identical or similar permeabilities in both transport directions indicate passive permeation, vectorial permeability points to additional active transport mechanisms. Higher PEBA than PEAB indicates the involvement of active efflux mediated by MDR1 P-gp. Active transport is concentration-dependently saturable.
MDCK-MDR1 cells (1-2×10e5 cells/1 cm2 area) are seeded on filter inserts (Costar transwell polycarbonate or PET filters, 0.4 μm pore size) and cultured (DMEM) for 7 days. Subsequently, the MDR1 expression is boosted by culturing the cells with 5 mM sodium butyrate in full medium for 2 days. Compounds are dissolved in appropriate solvent (like DMSO, 1-20 mM stock solutions). Stock solutions are diluted with HTP-4 buffer (128.13 mM NaCl, 5.36 mM KCl, 1 mM MgSO4, 1.8 mM CaCl2, 4.17 mM NaHCO3, 1.19 mM Na2HPO4×7H2O, 0.41 mM NaH2PO4×H2O, 15 mM HEPES, 20 mM glucose, 0.25% BSA, pH 7.4) to prepare the transport solutions (0.1-300 μM compound, final DMSO<=0.5%). The transport solution (TL) is applied to the apical or basolateral donor side for measuring A-B or B-A permeability (3 filter replicates), respectively. The receiver side contains the same buffer as the donor side. Samples are collected at the start and end of experiment from the donor and at various time intervals for up to 2 hours also from the receiver side for concentration measurement by HPLC-MS/MS or scintillation counting. Sampled receiver volumes are replaced with fresh receiver solution.

| Structure (SMILES) | efflux ratio |
| --- | --- |
| CCN(C(=O)c1cccc(F)c1-c1ncccn1)[C@@H](C)CNc1ncc(C(F)(F)F)cn1 [Example 11] | 3 to 5 |
| CCN(C(=O)c1nc(C)ccc1-n1cccn1)[C@@H](C)CNc1ncc(C(F)(F)F)cn1 [Example 12] | < 3 |
| CCN(C(=O)c1c(F)cccc1-c1ncccn1)[C@@H](C)CNc1ncc(C(F)(F)F)cn1 [Example 13] | < 3 |
| CCN(C(=O)c1ccccc1-c1noc(C)n1)[C@@H](C)CNc1ncc(C(F)(F)F)cn1 [Example 14] | < 3 |
| CCN(C(=O)c1cc(F)ccc1-c1ncccn1)[C@@H](C)CNc1ncc(C(F)(F)F)cn1 [Example 15] | < 3 |
| CCN(C(=O)c1ccc(F)cc1-c1ncccn1)[C@@H](C)CNc1ncc(C(F)(F)F)cn1 [Example 16] | < 3 |
| CCN(C(=O)c1ncccc1-c1ccccc1)[C@@H](C)CNc1ncc(C(F)(F)F)cn1 [Example 19] | < 3 |
| CCN(C(=O)c1cncnc1-c1ccccc1)[C@@H](C)CNc1ncc(C(F)(F)F)cn1 [Example 20] | < 3 |
| CCN(C(=O)c1nccnc1-c1ccccc1)[C@@H](C)CNc1ncc(C(F)(F)F)cn1 [Example 21] | < 3 |
| CCN(C(=O)c1ccccc1-n1nccn1)[C@@H](C)CNc1cnc(C(F)(F)F)cn1 [Example 22] | 3 to 5 |
| CCN(C(=O)c1ccc(F)cc1-c1nnc(C)o1)[C@@H](C)CNc1cnc(C(F)(F)F)cn1 [Example 23] | 3 to 5 |
| CCN(C(=O)c1cccc(F)c1-n1nccn1)[C@@H](C)CNc1cnc(C(F)(F)F)cn1 [Example 24] | 3 to 5 |

Biological target: T1, human Orexin 1 receptor (Homo sapiens, UniProt O43613)
T1 construct: stably expressing the full-length human Orexin 1 receptor and the aequorin photoprotein; expressed in transfected cells; host or cells: CHO-K1 (CHO-K1/hOx1), co-expressing aequorin
T1 sequence (O43613 1-425): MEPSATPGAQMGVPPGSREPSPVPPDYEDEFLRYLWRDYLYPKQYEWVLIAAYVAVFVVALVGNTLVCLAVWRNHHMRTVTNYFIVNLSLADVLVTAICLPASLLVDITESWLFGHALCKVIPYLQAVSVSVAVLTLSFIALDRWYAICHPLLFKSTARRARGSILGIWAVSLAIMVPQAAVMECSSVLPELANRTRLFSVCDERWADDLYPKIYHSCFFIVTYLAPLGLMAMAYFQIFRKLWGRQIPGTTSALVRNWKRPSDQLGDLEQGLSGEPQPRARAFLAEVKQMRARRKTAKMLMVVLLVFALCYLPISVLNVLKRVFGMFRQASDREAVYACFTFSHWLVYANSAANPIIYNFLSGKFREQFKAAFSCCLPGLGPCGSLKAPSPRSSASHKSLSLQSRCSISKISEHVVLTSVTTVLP
Assay: Assay A: OX1R IP1 (in vitro OX1R potency)
Type: cell-based
Details: versus Example 90 in WO2016/034882
Description: Activation of the orexin receptors expressed in cell lines results in an increase in intracellular IP3 concentration. IP1, a downstream metabolite of IP3, accumulates in cells following receptor activation and is stable in the presence of LiCl. Using Homogeneous Time-Resolved Fluorescence technology with Lumi4-Tb cryptate (commercially available from Cisbio Bioassay.) and a suitable fluorescence plate reader. […] This technique is used to characterize pharmacological modification of the orexin receptors.
A. In Vitro Testing of OX1R Potency: OX1R IP1
IP1 measurements are performed in CHO-K1 cells stably expressing the full-length human Orexin 1 receptor and the aequorin photoprotein. Cells are cultivated in Ham's nutrient mixture F12 medium with 10% fetal calf serum, in a 37° C., 95% humidity and 5% CO2 incubator. The CHO-K1/hOx1 cell mass is expanded to larger cell numbers. The cells are obtained as frozen cells in cryo-vials and stored until use at −150° C. […] In preparation for the assay, 24 hours before the assay, the cells are thawed at 37° C. and immediately diluted with cell culture medium. After centrifugation, the cell pellet is re-suspended in medium and then distributed into the assay plates with a density of 10000 cells/25 μL per well. The plates are incubated for one hour at room temperature to reduce edge effects before they are incubated for 24 hours at 37° C./5% CO2. Compounds are prepared by an 8-point serial dilution in DMSO and a final dilution step into assay buffer (HBSS with 20 mM HEPES, 0.1% BSA and 50 mM LiCl, pH 7.4) to ensure a final DMSO concentration of 1% in the assay.
On the day of the assay, cells in the plate are washed twice with 60 μL assay buffer (20 μL buffer remained in the wells after washing), followed by adding 5 μL per well of compounds diluted in assay buffer. After 15 minutes of incubation at room temperature 5 μL per well of Orexin A peptide (final concentration: 0.5 nM, and/or 50 nM) dissolved in assay buffer is added to the assay plate. The assay plate is incubated for 60 minutes at 37° C. Then 5 μl per well of Anti-IP1-Cryptate Tb solution and 5 μl per well of IP1-d2 dilution are added and the plate is incubated for a further 60 minutes light protected at room temperature. […] 8-point four parametric non-linear curve fitting and determination of IC50 values and Hill slopes is performed using a regular analysis software e.g. AssayExplorer (Accelrys).
Kb values from Assay A (OX1R) and Assay B (OX2R) can then provide a selectivity ratio which is independent of the agonist (Orexin A) concentration.

| Structure (SMILES) | higher potency at OX1R |
| --- | --- |
| CCN(C(=O)c1nc(C)ccc1-n1cccn1)[C@@H](C)CNc1ncc(C(F)(F)F)cn1 [Example 12] | at least 3 fold |
